Data taken from US10035790B2, “RORγ modulators” (BRISTOL-MYERS SQUIBB COMPANY, priority 2012, dated 2018).

Target: T1, ligand binding domain of human RORγ (A262-S507) (Homo sapiens, UniProt P51449)
T1 construct: made in house; host or cells: E. coli
T1 sequence (P51449 262-507): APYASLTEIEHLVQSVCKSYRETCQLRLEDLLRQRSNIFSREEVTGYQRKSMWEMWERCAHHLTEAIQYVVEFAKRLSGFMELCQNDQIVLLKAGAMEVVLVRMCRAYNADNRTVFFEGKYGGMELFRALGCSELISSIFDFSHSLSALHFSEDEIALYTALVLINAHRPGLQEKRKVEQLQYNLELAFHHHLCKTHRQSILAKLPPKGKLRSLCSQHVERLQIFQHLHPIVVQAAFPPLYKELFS
Assay: General RORγ SPA binding assay (competition with [3H]25-hydroxycholesterol)
Conditions: RORγ SPA binding assay, inhibition of [3H]25-hydroxycholesterol binding; read-out: IC50
Procedure: Example 2 General RORγ SPA Binding Assay
The binding of potential ligands to RORγ is measured by competition with [^3H]25-hydroxycholesterol using a scintillation proximity assay (SPA) binding assay. The ligand binding domain of human RORγ (A262-S507) with an N-terminal His tag is expressed in E. coli and purified using nickel affinity chromotography. 50 nM RORγ (A262-S507) is incubated with test compound at varying concentrations for 15 min at room temperature in PBS buffer containing 0.5% fatty acid free BSA. […] of [^3H]25-hydroxycholesterol is then added, and the reaction is incubated for 15 min. 4 mg/mL of Ysi Copper HIS-TAG SPA Beads (Perkin Elmer) are added, and the mixture is incubated for 30 min. The reaction is read on a MicroBeta Trilux scintillation plate reader (Perkin Elmer). IC50 values are determined from the percentage inhibition of [^3H]25-hydroxycholesterol binding.

IC50	Compound
3.72 µM	Cc1ncc(C(=NOc2cccc(F)c2)C(F)(F)F)c(C2CCN(C(=O)Cc3c(F)cccc3F)CC2)n1 (mixture of isomers) [Compound B29, (Z)-2-(2,6-Difluorophenyl)-1-(4-(2-methyl-5-(2,2,2-trifluoro-1-(3-fluorophenoxyimino)ethyl)pyrimidin-4-yl)piperidin-1-yl)ethanone]
0.334 µM	CSc1ncc(C(C)=NOc2ccnc(C(F)(F)F)c2)c(C2CCN(C(=O)Nc3c(F)cccc3F)CC2)n1 (mixture of isomers) [Compound B52, N-(2,6-Difluorophenyl)-4-{2-(methylthio)-5-[(1E)-N-{[2-(trifluoromethyl)pyridin-4-yl]oxy}ethanimidoyl]pyrimidin-4-yl}piperidine-1-carboxamide]
0.0062 µM	Cc1cc(C)cc(COC(C)(COC[C@H](O)CO)c2cnc(C)nc2C2CCN(C(=O)Cc3c(F)cccc3F)CC2)c1 (mixture of isomers) [Compound E9, 2-(2,6-Difluorophenyl)-1-(4-(5-(1-((R)-2,3-dihydroxypropoxy)-2-(3,5-dimethylbenzyloxy)propan-2-yl)-2-methylpyrimidin-4-yl)piperidin-1-yl)ethanone]
0.046 µM	Cc1cc(C)cc(CC=Cc2cnc(C)nc2C2CCN(C(=O)Cc3c(F)cccc3F)CC2)c1 (mixture of isomers) [Compound J1, (E)-2-(2,6-Difluorophenyl)-1-(4-(5-(3-(3,5-dimethylphenyl)prop-1-enyl)-2-methylpyrimidin-4-yl)piperidin-1-yl)ethanone]
0.0041 µM	Cc1cc(C)cc(COC(C)(COC[C@H](O)CO)c2cnc(C)nc2C2CCN(C(=O)Cc3c(F)cccc3F)CC2)c1 (stereo in doubt) [Compound E8, 2-(2,6-Difluorophenyl)-1-(4-(5-(1-(2,3-dihydroxypropoxy)-2-(3,5-dimethylbenzyloxy)propan-2-yl)-2-methylpyrimidin-4-yl)piperidin-1-yl)ethanone]
0.0047 µM	Cc1cc(C)cc(CNC(=O)c2cnc(C)nc2C2CCN(C(=O)Cc3c(F)cccc3F)CC2)c1 [Compound A1]
0.0068 µM	Cc1ncc(C(=O)NCc2ccc(Cl)c(Cl)c2)c(C2CCN(C(=O)Cc3c(F)cccc3F)CC2)n1 [Compound A2, N-(3,4-dichlorobenzyl)-4-(1-(2-(2,6-difluorophenyl)acetyl)piperidin-4-yl)-2-methylpyrimidine-5-carboxamide]
0.0072 µM	Cc1cc(C)cc(CNC(=O)c2cnc(C)nc2C2CCN(C(=O)Cc3c(F)cccc3Cl)CC2)c1 [Compound A3, 4-(1-(2-(2-chloro-6-fluorophenyl)acetyl)piperidin-4-yl)-N-(3,5-dimethylbenzyl)-2-methylpyrimidine-5-carboxamide]
0.0078 µM	Cc1cc(C)cc(CNC(=O)c2cnc(C)nc2C2CCN(C(=O)Cc3c(F)cccc3C(F)(F)F)CC2)c1 [Compound A4, N-(3,5-dimethylbenzyl)-4-(1-(2-(2-fluoro-6-(trifluoromethyl)phenyl)acetyl)piperidin-4-yl)-2-methylpyrimidine-5-carboxamide]
0.0089 µM	Cc1cc(C)cc(CNC(=O)c2cnc(C)nc2C2CCN(C(=O)Cc3ccccc3C(F)(F)F)CC2)c1 [Compound A5, N-(3,5-dimethylbenzyl)-2-methyl-4-(1-(2-(2-(trifluoromethyl)phenyl)acetyl)piperidin-4-yl)pyrimidine-5-carboxamide]
0.0264 µM	O=C(NCc1ccc(Cl)c(Cl)c1)c1cncnc1C1CCN(C(=O)Cc2c(F)cccc2Cl)CC1 [Compound A6, 4-(1-(2-(2-chloro-6-fluorophenyl)acetyl)piperidin-4-yl)-N-(3,4-dichlorobenzyl)pyrimidine-5-carboxamide]
0.0281 µM	Cc1cc(C)cc(CNC(=O)c2cnc(C)nc2C2CCN(C(=O)Cc3ccccc3Cl)CC2)c1 [Compound A7, 4-(1-(2-(2-chlorophenyl)acetyl)piperidin-4-yl)-N-(3,5-dimethylbenzyl)-2-methylpyrimidine-5-carboxamide]
0.0294 µM	Cc1cc(C)cc(CNC(=O)c2cnc(C)nc2C2CCN(C(=O)c3c(F)cccc3Cl)CC2)c1 [Compound A8, 4-(1-(2-chloro-6-fluorobenzoyl)piperidin-4-yl)-N-(3,5-dimethylbenzyl)-2-methylpyrimidine-5-carboxamide]
0.0316 µM	Cc1cc(C)cc(CNC(=O)c2cnc(C)nc2C2CCN(C(=O)Cc3ccccc3OC(F)(F)F)CC2)c1 [Compound A9, N-(3,5-dimethylbenzyl)-2-methyl-4-(1-(2-(2-(trifluoromethoxy)phenyl)acetyl)piperidin-4-yl)pyrimidine-5-carboxamide]
0.0331 µM	COc1ccccc1CC(=O)N1CCC(c2nc(C)ncc2C(=O)NCc2cc(C)cc(C)c2)CC1 [Compound A10, N-(3,5-dimethylbenzyl)-4-(1-(2-(2-methoxyphenyl)acetyl)piperidin-4-yl)-2-methylpyrimidine-5-carboxamide]
0.049 µM	Cc1cc(C)cc(CNC(=O)c2cnc(C)nc2C2CCN(C(=O)Cc3ccccc3C)CC2)c1 [Compound A11, N-(3,5-dimethylbenzyl)-2-methyl-4-(1-(2-(o-tolyl)acetyl)piperidin-4-yl)pyrimidine-5-carboxamide]
0.05 µM	Cc1cc(C)cc(CNC(=O)c2cnc(C)nc2C2CCN(C(=O)Cc3ccccc3F)CC2)c1 [Compound A12, N-(3,5-dimethylbenzyl)-4-(1-(2-(2-fluorophenyl)acetyl)piperidin-4-yl)-2-methylpyrimidine-5-carboxamide]
0.052 µM	Cc1ncc(C(=O)NCc2ccc(Cl)c(Cl)c2)c(C2CCN(C(=O)Cc3c(F)ccc(F)c3F)CC2)n1 [Compound A13, N-(3,4-dichlorobenzyl)-2-methyl-4-(1-(2-(2,3,6-trifluorophenyl)acetyl)piperidin-4-yl)pyrimidine-5-carboxamide]
0.066 µM	Cc1cc(C)cc(CNC(=O)c2cnc(C)nc2C2CCN(C(=O)Cc3cc(F)ccc3F)CC2)c1 [Compound A14, 4-(1-(2-(2,5-difluorophenyl)acetyl)piperidin-4-yl)-N-(3,5-dimethylbenzyl)-2-methylpyrimidine-5-carboxamide]
0.07 µM	Cc1cc(C)cc(CNC(=O)c2cnc(C)nc2C2CCN(C(=O)Cc3ccccc3[N+](=O)[O-])CC2)c1 [Compound A15, N-(3,5-dimethylbenzyl)-2-methyl-4-(1-(2-(2-nitrophenyl)acetyl)piperidin-4-yl)pyrimidine-5-carboxamide]
0.089 µM	Cc1cc(C)cc(CNC(=O)c2cnc(C)nc2C2CCN(C(=O)[C@H](C)c3ccccc3)CC2)c1 [Compound A16, (R)-N-(3,5-dimethylbenzyl)-2-methyl-4-(1-(2-phenylpropanoyl)piperidin-4-yl)pyrimidine-5-carboxamide]
0.124 µM	Cc1cc(C)cc(CNC(=O)c2cnc(C)nc2C2CCN(C(=O)Cc3cccc(F)c3F)CC2)c1 [Compound A18, 4-(1-(2-(2,3-difluorophenyl)acetyl)piperidin-4-yl)-N-(3,5-dimethylbenzyl)-2-methylpyrimidine-5-carboxamide]
0.155 µM	Cc1cc(C)cc(CNC(=O)c2cnc(C)nc2C2CCN(C(=O)Cc3cccc4ccccc34)CC2)c1 [Compound A19, N-(3,5-dimethylbenzyl)-2-methyl-4-(1-(2-(naphthalen-1-yl)acetyl)piperidin-4-yl)pyrimidine-5-carboxamide]
0.158 µM	Cc1ncc(C(=O)NCCOc2ccccc2)c(C2CCN(C(=O)Cc3c(F)cccc3F)CC2)n1 [Compound A20, 4-(1-(2-(2,6-difluorophenyl)acetyl)piperidin-4-yl)-2-methyl-N-(2-phenoxyethyl)pyrimidine-5-carboxamide]
0.209 µM	O=C(NCc1ccc(Cl)c(Cl)c1)c1cnc(C(F)(F)F)nc1C1CCN(C(=O)Cc2c(F)cccc2F)CC1 [Compound A21, N-(3,4-dichlorobenzyl)-4-(1-(2-(2,6-difluorophenyl)acetyl)piperidin-4-yl)-2-(trifluoromethyl)pyrimidine-5-carboxamide]
0.235 µM	Cc1cc(C)cc(CNC(=O)c2cnc(C)nc2C2CCN(C(=O)Cc3cccc(F)c3)CC2)c1 [Compound A22, N-(3,5-dimethylbenzyl)-4-(1-(2-(3-fluorophenyl)acetyl)piperidin-4-yl)-2-methylpyrimidine-5-carboxamide]
0.254 µM	Cc1cc(C)cc(CNC(=O)c2cnc(C)nc2C2CCN(C(=O)c3ccccc3F)CC2)c1 [Compound A23, N-(3,5-dimethylbenzyl)-4-(1-(2-fluorobenzoyl)piperidin-4-yl)-2-methylpyrimidine-5-carboxamide]
0.215 µM	Cc1cc(C)cc(CNC(=O)c2cnc(C)nc2C2CCN(C(=O)c3ccccc3Cl)CC2)c1 [Compound A24, 4-(1-(2-chlorobenzoyl)piperidin-4-yl)-N-(3,5-dimethylbenzyl)-2-methylpyrimidine-5-carboxamide]
0.267 µM	Cc1cc(C)cc(CNC(=O)c2cnc(C)nc2C2CCN(C(=O)Cc3ccccc3)CC2)c1 [Compound A25, N-(3,5-dimethylbenzyl)-2-methyl-4-(1-(2-phenylacetyl)piperidin-4-yl) pyrimidine-5-carboxamide]
0.446 µM	Cc1cc(C)cc(CNC(=O)c2cnc(C)nc2C2CCN(C(=O)[C@@H](C)c3ccccc3)CC2)c1 [Compound A26, (S)-N-(3,5-dimethylbenzyl)-2-methyl-4-(1-(2-phenylpropanoyl)piperidin-4-yl)pyrimidine-5-carboxamide]
